Tested on: mEP17 protein
Test: Regulation of mEP17 protein expression (Western blotting and immunohistochemistry) in treated mice
Type: in vivo, mouse
From the text: The regulation of mEP17 protein expression was investigated using Western blotting and immunohistochemistry in castrated mice, castrated testosterone supplemented mice, unilateral castrated mice, unilateral cryptorchid mice, and busulphan-treated mice. As previously observed at the mRNA level (FIGS. 15A-15C), mEP17 protein disappeared from the initial segment two days after bilateral castration and was not restored by testosterone treatment. Similarly, after unilateral castration, mEP17 protein disappeared from the castrated side, but not from the non-castrated side.
To determine whether germ cell-associated testicular factors can regulate mEP17, spermatogenesis was disrupted using cryptorchidism or busulphan treatment. One month following cryptorchidism, mEP17 protein was not detected in the initial segment of the cryptorchid epididymis but was detected at normal levels in the scrotal epididymis. In cryptorchidism, the testis and the epididymis are exposed to abdominal temperature. To distinguish the effects of abdominal temperature on the testis or epididymis, spermatogenesis was also disrupted by busulphan treatment.

Row | Structure (SMILES) | level of mEP17 protein compared to untreated controls (busulphan-treated mice, following a 35-day treatment (disruption of spermatogenesis)) | mEP17 protein in the initial segment of the epididymis after testosterone treatment (castrated testosterone supplemented mice, protein disappeared two days after bilateral castration)
1 | CS(=O)(=O)OCCCCOS(C)(=O)=O [busulphan] | drastically reduced | –
2 | C[C@]12CC[C@H]3[C@@H](CCC4=CC(=O)CC[C@@]43C)[C@@H]1CC[C@@H]2O [testosterone] | – | not restored
